Patent US20230257385A1, “SALT AND SOLID FORMS OF TABERNANTHALOG” (priority 2021, published 2023)

Assays:
Assay type in all cases: physicochemical
[1] = Evaporation screen of the monofumarate salt (Experiment Reference 14); conditions: input Sample Reference 1, Solvent A DMSO, Solvent B: 14-A EtOH; for XRPD crystallinity (oven dried): 14-B nBuOH, 14-C water; for XRPD crystallinity (wet pellet): 14-B nBuOH (disordered), 14-C water (high background)
Experimental: Crystallization of the API was examined by changing the composition of the crystallization solvent by evaporation of a volatile diluent. This technique is useful for generating kinetic forms and solvates. Separate portions of the tabernanthalog monofumarate salt (Pattern #1, Sample Reference 1, ca 50 mg, 1.0 wt.) were charged to separate vessels. DMSO (100 μl, 2.0 vol, refer to Table 132) was charged to the relevant vessels and subsequent charges of the appropriate co-solvent (900 μl, 18.0 vol) were made to accomplish dissolution. The vials were covered with an aluminum foil cap and pierced with a single hole, then left to stand at 20° C. After 6 days, gentle nitrogen flux was applied to dryness. The products were analyzed by XRPD and companion analyses, for evidence of alternative crystalline forms.

[2] = Competitive suspension equilibration monofumarate Form A and Form B (Experiment Reference 16); conditions: 16-A at 20 °C, 16-B at 40 °C
Experimental: Competitive suspension equilibration (Form A and Form B) (Experiment Reference 16) a. Experimental Procedure Equimolar quantities of Form A (Pattern #6a, 25.4 mg, 1 wt, 8-A4; (Experiment Reference 8-Sample Reference A4)) and Form B (Pattern #2a, 25.0 mg, 1 wt, Sample B-A2) were suspended in tBME (250 μl, 5.0 vol). The first experiment was agitated at 20° C., (16-A) (Experiment Reference 16-Sample Reference A), while the other was agitated at 40° C. (16-B) (Experiment Reference 16-Sample Reference B). The suspension was monitored by XRPD analysis.
Competitive suspension equilibration of Form A (8-A4) (Experiment Reference 8-Sample Reference A4) versus Form B (Sample B-A2) was performed at 20° C. […] Summary of competitive suspension equilibration between Form A and Form B (16-A (Experiment Reference 16-Sample Reference A) and 16-B (Experiment Reference 16-Sample Reference B)) is provided in Table 153A.

[3] = Re-proportionation examination hemifumarate / monofumarate (Example 5, Experiment References 5 and 10)
Experimental: (5-B4; Experiment Reference 5-Sample Reference B4) and 40° C. (5-B5; Experiment Reference 5-Sample Reference B5). The output was analyzed by XRPD (FIG. 94).
Purified water (250 ml, 5 vol) was subsequently added, and the suspension was stirred at 50° C. for ca. 24 h.
Purified water (250 ml, 5 vol) was subsequently added, and the suspension was stirred at 20° C. for ca. 24 h.

[4] = Suspension equilibration (competitive; ageing cycle; drying of wet pellets), relative stability of forms
Experimental: FIG. 94 depicts the XRPD overlay of, form top to bottom, a mixture of Tabernanthalog·0.5 Fumarate and Tabernanthalog·Fumarate equilibrated in acetonitrile at 20° C., a mixture of Tabernanthalog·0.5 Fumarate and Tabernanthalog·Fumarate equilibrated in acetonitrile at 40° C. and Tabernanthalog fumarate Pattern 19.
FIG. 283 depicts the timepoints of the suspension equilibration in tBME at 20° C. XRPD diffractogram overlay of, from top to bottom, Sample B-A2 (Form B, Pattern #2a), 8-A4 (Form A, Pattern #6a), 16-A1 (t=24 h, 16-A2 (t=48 h), 16-A3 (t=108 h), 16-A4 (t=192 h) 16-A8 (t=4 weeks).
FIG. 284 depicts the timepoints of the suspension equilibration in tBME at 40° C. XRPD diffractogram overlay of, from top to bottom, Sample B-A2 (Form B, Pattern #2a), 8-A4 (Form A, Pattern #6a), 16-B1 (t=24 h, 16-B2 (t=48 h), 16-B3 (t=108 h), 16-B4 (t=192 h) 16-B8 (t=4 weeks).

[5] = Binary solvent evaporation crystallisation of sorbate salt (Example 10, Experiment 6); conditions: sorbate salt Form A evaporated from MeOH (10 vol) plus solvent B (5 vol), one solvent B per sample
Excerpt: Each vial was capped with aluminium foil, pierced, and allowed to stand undisturbed until the evaporation is completed.

[6] = Vapour diffusion of the monofumarate salt (Experiment Reference 13); conditions: input Sample Reference 1, Solvent A DMSO, Solvent B: 13-B TBME, 13-C water, patterns v. disordered
Experimental: The tabernanthalog monofumarate salt (Sample Reference 1, Pattern #1, 3×75 mg, 1 wt) was weighed out in to 3 separate snap-top vials and DMSO (375 ul, 5 vol) was charged to each vial. Gentle warning was applied to ensure full dissolution and the vials (open) were placed inside amber jars that contained 6 ml of DCM (13-A) (Experiment Reference 13-Sample Reference A), tBME (13-B) (Experiment Reference 13-Sample Reference B) and water (13-C) (Experiment Reference 13-Sample Reference C).
The 3 jars that contained the vials were left standing at 20° C., to allow slow movement of the diffusant solvent from the outer jar into the solvent inside the smaller, open wide-necked vessel and promote crystallization by altering the solvent composition.

[7] = Stability of Tabernanthalog·Sorbate·HemiHFIPA at 75% RH, 20° C. and 40° C.; conditions: 5 days; for Outcome: input Experiment 3-Sample A2; for HFIPA content after storage / powder pattern after storage: 75% RH, 20° C. and 40° C.; for HFIPA content after storage: 19F NMR; for powder pattern after storage: XRPD
Experimental: Stability of the salt (Table 302) at elevated relative humidity was examined at 20 and 40° C., to determine if the HFIPA solvent can be replaced by water to generate the isomorphic hydrate.
Experimental reference: Experiment 3-Sample B1, Experiment 3-Sample C1 Tabernanthalog·Sorbate·HemiHFIPA (Experiment 3-Sample A2, 28.2 mg, 1 wt) was charged into a wide necked solid sample vial, the uncapped vial was placed inside a larger amber jar containing an aqueous NaCl slurry. The amber jar was sealed and left to stand for 5 days. The specimen analysed by XRPD, ^19F NMR, TGA and DSC after 5 days.

[8] = Stability panel of salts, open vial / double-bagged vial, t=5 d and 10 d; conditions: input Form A
Excerpt: FIG. 797 depicts the overlay of, from top to bottom, XRPD of Experiment 1-Sample A2 (Form A), Experiment 10-Sample A1 (5 days, open vial Pattern #2), Experiment 10-Sample A2 (10 days, open vial, Pattern #2), Experiment 10-Sample B1 (5 days, double-bagged vial, Form A) and Experiment 10-Sample B2 (10 days, double-bagged vial, Pattern #2).

[9] = listed as Tabernanthalog·Sorbate·hemiHFIPA

COc1ccc2c3c([nH]c2c1)CCN(C)CC3.O=C(O)/C=C/C(=O)O [Sample 14-C]
XRPD crystallinity (oven dried) [1]: Pattern 6a

COc1ccc2c3c([nH]c2c1)CCN(C)CC3.O=C(O)/C=C/C(=O)O [Pattern 14-C]
XRPD crystallinity (wet pellet) [1]: (Pattern #6a)

COc1ccc2c3c([nH]c2c1)CCN(C)CC3.O=C(O)/C=C/C(=O)O [Pattern 16-B]
XRPD (24 h, -A1) ([2]; competitive suspension equilibration of Form A (8-A4) and Form B (Sample B-A2) in TBME (5.0 vol), t = 24 h): Form A > Form B

COc1ccc2c3c([nH]c2c1)CCN(C)CC3 [tabernanthalog hemifumarate]
re-proportionation of the hemi-salt into the monofumarate salt ([3]; Expt. #1: equilibrated in acetonitrile at 20° C., 20 h time point): did not re-proportionate | outcome of competitive equilibration of hemifumarate and monofumarate ([3]; Expt. #2: acetonitrile, 48 h at 20° C. and 18 h at 40° C., XRPD): re-proportionation into the unary-fumarate appeared to be favored over the hemi-fumarate | change of salt stoichiometry during an ageing cycle ([4]; ageing cycle): re-proportionated into the fumarate salt

C/C=C/C=C/C(=O)O.COc1ccc2c3c([nH]c2c1)CCN(C)CC3 [Experiment 6-Sample E]
XRPD (dried under nitrogen) [5]: Form A

COc1ccc2c3c([nH]c2c1)CCN(C)CC3.O=C(O)/C=C/C(=O)O [Sample 14-B]
XRPD crystallinity (oven dried) [1]: Pattern 23

COc1ccc2c3c([nH]c2c1)CCN(C)CC3.O=C(O)/C=C/C(=O)O [Pattern 14-B]
XRPD crystallinity (wet pellet) [1]: (Pattern #23)

COc1ccc2c3c([nH]c2c1)CCN(C)CC3.O=C(O)/C=C/C(=O)O [Pattern 16-A]
XRPD (4 weeks, -A8) ([2]; competitive suspension equilibration of Form A and Form B in TBME (5.0 vol), t = 4 weeks): Form A > Form B | XRPD (48 h, -A2) ([2]; competitive suspension equilibration of Form A and Form B in TBME (5.0 vol), t = 48 h): Form A > Form B | XRPD (108 h, -A3) ([2]; competitive suspension equilibration of Form A and Form B in TBME (5.0 vol), t = 108 h): Form A > Form B | XRPD (192 h, -A4) ([2]; competitive suspension equilibration of Form A and Form B in TBME (5.0 vol), t = 192 h): Form A >> Form B

COc1ccc2c3c([nH]c2c1)CCN(C)CC3.O=C(O)/C=C/C(=O)O [Sample 13-B]
XRPD crystallinity (oven dried) [6]: Pattern #24 | XRPD crystallinity (wet pellet) [6]: Pattern #24

COc1ccc2c3c([nH]c2c1)CCN(C)CC3 [Form B]
form change under competitive suspension equilibration conditions ([4]; in the presence of Form A): slowly evolves into Form A

CC=CC=CC(=O)O.CC=CC=CC(=O)O.COc1ccc2c3c([nH]c2c1)CCN(C)CC3.COc1ccc2c3c([nH]c2c1)CCN(C)CC3.OC(C(F)(F)F)C(F)(F)F [Tabernanthalog•Sorbate•hemiHFIPA]
Outcome ([7]; 75% RH 20° C.): HemiHFIPA | Outcome ([7]; 75% RH 40° C.): HemiHFIPA

COc1ccc2c3c([nH]c2c1)CCN(C)CC3.O=C(O)/C=C/C(=O)O [Sample 14-A]
XRPD crystallinity (oven dried) [1]: Pattern 23

CC=CC=CC(=O)O.COc1ccc2c3c([nH]c2c1)CCN(C)CC3 [Experiment 6-Sample C]
XRPD (dried under nitrogen) [5]: Form A

COc1ccc2c3c([nH]c2c1)CCN(C)CC3.O=C(O)/C=C/C(=O)O [Pattern 14-A]
XRPD crystallinity (wet pellet) [1]: (Pattern #23)

C/C=C/C=C/C(=O)O.COc1ccc2c3c([nH]c2c1)CCN(C)CC3 [tabernanthalog sorbate salt Form A]
form by XRPD after stability storage ([8]; 5 days, double-bagged vial): Form A | form by XRPD after stability storage ([8]; 5 days, open vial): Pattern #2 | form by XRPD after stability storage ([8]; 10 days, double-bagged vial): Pattern #2

COc1ccc2c3c([nH]c2c1)CCN(C)CC3.O=C(O)/C=C/C(=O)O [Sample 13-C]
XRPD crystallinity (oven dried) [6]: Pattern #23 | XRPD crystallinity (wet pellet) [6]: Pattern #23

CC=CC=CC(=O)O.COc1ccc2c3c([nH]c2c1)CCN(C)CC3 [Experiment 6-Sample A]
XRPD (dried under nitrogen) [5]: Pattern #1

C/C=C/C=C/C(=O)O.C/C=C/C=C/C(=O)O.COc1ccc2c3c([nH]c2c1)CCN(C)CC3.COc1ccc2c3c([nH]c2c1)CCN(C)CC3.OC(C(F)(F)F)C(F)(F)F [Tabernanthalog·Sorbate·HemiHFIPA]
HFIPA content after storage [7]: small decrease in HFIPA content | HFIPA content after storage [7, 9]: partial loss of HFIPA | powder pattern after storage [7]: No change in powder pattern observed | powder pattern after storage [7, 9]: No change in the powder pattern was observed

C/C=C/C=C/C(=O)O.COc1ccc2c3c([nH]c2c1)CCN(C)CC3 [Experiment 6-Sample D]
XRPD (dried under nitrogen) [5]: Form A
